Patent US20250162989A1, “USP30 INHIBITORS AND USES THEREOF” (Vincere Biosciences, Inc., priority 2021, published 2025)

Assays:
Kinetic solubility = assay type: physicochemical; details: 100 mM PBS, 1 hour at room temperature
Procedure: To 396 μL of a 100 mM phosphate buffered saline (PBS) was added 4 μL of a 10 mM stock solution of the compound. The mixture was shaken at 1000 rpm for 1 hour at room temperature. […] Compound concentration was calculated by comparison to a standard calibration curve. The assay was done in duplicate. The results are reported in μMol.

[1] = Metabolic stability and intrinsic clearance in liver microsomes (rat); assay type: in vitro ADME; details: 37° C.
Procedure: (§1) Test compounds were incubated with microsomes supplemented with co-factors at 37° C. Typical conditions were: compound concentration of 1 μM and 5 sampling time-points (0, 15, 30, 45 and 60 minutes), in duplicates. At each time-point, the reactions were terminated by the addition of organic solvent. The samples were centrifuged and the parent compound concentration was evaluated by LC-MS/MS measurements.

[2] = target: recombinant USP30 (amino acids 57-517 of the human sequence) (Homo sapiens (Human), UniProt Q70CQ3); test: In vitro USP30 biochemical assay (Ubiquitin-Rhodamine substrate); details: fluorescence
Procedure: In vitro biochemical assay to establish the potency of compounds for USP30 inhibition: a 384-well plate assay using a fluorophore tagged substrate of USP30 was used for in vitro screening of compounds. Each compound was tested at
10 different concentrations (0.5 to 10,000 nM) in duplicate wells. […] Data were analyzed using Graph Pad Prism software with a four-parameter (floating slope) fit to log concentration data to determine IC50s.

[3] = Metabolic stability and intrinsic clearance in liver microsomes (mouse); assay type: in vitro ADME; details: 37° C.
Procedure: as §1

[4] = Metabolic stability and intrinsic clearance in liver microsomes (human); assay type: in vitro ADME; details: 37° C.
Procedure: as §1

Caco-2 cells = test: Caco-2 permeability screening assay; assay type: in vitro ADME; details: Caco-2, 10 μM, […] at 37° C.

Chain of recombinant USP30 (amino acids 57-517 of the human sequence) (Q70CQ3 57-517): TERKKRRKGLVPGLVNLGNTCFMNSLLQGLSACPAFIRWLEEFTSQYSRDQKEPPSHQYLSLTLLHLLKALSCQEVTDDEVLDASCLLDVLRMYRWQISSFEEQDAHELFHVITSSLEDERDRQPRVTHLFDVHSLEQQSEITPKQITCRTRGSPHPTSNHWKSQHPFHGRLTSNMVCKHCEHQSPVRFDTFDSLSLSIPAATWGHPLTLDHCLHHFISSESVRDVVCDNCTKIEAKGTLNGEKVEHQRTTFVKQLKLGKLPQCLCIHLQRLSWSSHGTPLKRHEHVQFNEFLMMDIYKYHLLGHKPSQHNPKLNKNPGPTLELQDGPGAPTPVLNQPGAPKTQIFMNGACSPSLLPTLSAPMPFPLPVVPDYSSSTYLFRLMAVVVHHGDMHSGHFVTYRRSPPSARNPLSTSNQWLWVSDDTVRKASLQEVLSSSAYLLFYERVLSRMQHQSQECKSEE

Row | Kinetic Solubility (μMol) (Kinetic solubility) | half-life at 1 μM [1] | IC50 ([2]; 1.5 nM recombinant USP30, 25 nM Ubiquitin-Rhodamine) | half-life at 1 μM [3] | half-life at 1 μM [4] | Half-life in rat microsomes ([1]; 1 μM) | Efflux Ratio (Papp B>A/Papp A>B) (Caco-2 cells) | Papp(A-B) (10 − 6, cm/sec) (Caco-2 cells; apical to basolateral) | IC50 ([2]; […] recombinant USP30, 25 nM Ubiquitin-Rhodamine) | Half-life in mouse microsomes ([3]; 1 μM) | Half-life in human microsomes ([4]; 1 μM) | SMILES
1 | A (solubility of ≥75.0 μMol) | ≥ 6 h | 0.05 to 1 µM | 0.25 to 2 h | 2 to 6 h |  |  |  |  |  |  | COc1cc(NC(=O)[C@H](CC2CCOCC2)NC(=O)c2ccc(F)cc2)ccc1S(=O)(=O)NC1COC1 [Compound I-3]
2 | C (solubility ≥1.0 μMol and <50.0 μMol) |  |  |  |  | D (half-life of <15 minutes) | B (efflux ratio >2 and ≤6) | 1.8 10 − 6, cm/sec | < 0.05 µM | D (half-life of <15 minutes) | D (half-life of <15 minutes) | CC(C)(C)NS(=O)(=O)c1ccc(NC(=O)[C@H](CC2CCCCC2)NC(=O)c2ccc(F)cc2)cc1 [Compound I-294]
